Five substances from article PMC7076013 (Scientific Reports, 2020) can be followed below.

Assay [1] has as its system CT26CL25, mouse colon carcinoma. Briefly: MTT cell viability, CT26CL25. To be noted: 48 h. In kind it is cell-based. On the procedure:
(§1) Both melanoma and colon cancer are tumor types tightly connected with inflammation, while the expression of COX-2 in the selected cell lines was highly variable. Since a lot of discrepancies were found in the literature concerning the expression of this enzyme[5],[48]–[53], both COX-1 and COX-2 expression was analyzed by Western blot. […] The cells were treated with a wide range of doses of 4a–c, 5, and 6 for 48 h and cell viability was determined by MTT (3-(4,5-dimethylthiazol-2-yl)-2,5-diphenyltetrazolium bromide) and CV (crystal violet) assays. The obtained IC50 values were similar for both assays (Table 1).
(§2) Reagents were obtained from Sigma (St. Louis, MO) unless indicated otherwise. Annexin V - FITC (AnnV) was acquired from Biotium (Hayward, CA) and Apostat from R&D (R&D S ystems, Minneapolis, MN USA). […] After being detached b y tr ypsinization, cells were seeded in defined number as follows: 2.5 × 10^3 cells/well in 96-well plates for viability assessment and 2 × 10^4 cells/well in 24-well plates for flow cytometry. […]
(§3) Committee at IBISS (02- 09/1 6). Cells were counted and seeded in 96-well plates and incubat ed overnight. Before treatment, non- adherent cells were removed. Compounds 4a- c, 5 and 6 were dissolved in DMSO and stored at −20 °C for a m onth. Working solutions were freshl y prepared in 10% FCS-RPMI-1640. Controls were treated with culture medium containing the equivalent […]
(§4) 3.2. Cell viability tests.
(§5) The number of viable cel ls in culture was estimated by the MTT (3-(4,5- dimethylthiazol- 2-yl ) - 2,5- diphenyltetrazolium bromide) and CV (crystal violet) tests. Cells were incubated in the presence of compounds 4a- c, 5 and 6 for 48 h, then the viability was measured as described.4 […]
(§6) The results were ex pressed as a p er centage of a v alue obtained for the untr eated control cells that was arbitrarily set to be 100%. A non- linear regression analysis of obtained results was done b y using Gr aphPad Prism software to calculat e IC50 values. […]

Another assay concerns the target T1, human recombinant COX-2 (Homo sapiens, UniProt P35354).
T1 construct: purchased Cayman Chemical Item No. 700100 (assay kit)
T1 sequence (P35354 18-604): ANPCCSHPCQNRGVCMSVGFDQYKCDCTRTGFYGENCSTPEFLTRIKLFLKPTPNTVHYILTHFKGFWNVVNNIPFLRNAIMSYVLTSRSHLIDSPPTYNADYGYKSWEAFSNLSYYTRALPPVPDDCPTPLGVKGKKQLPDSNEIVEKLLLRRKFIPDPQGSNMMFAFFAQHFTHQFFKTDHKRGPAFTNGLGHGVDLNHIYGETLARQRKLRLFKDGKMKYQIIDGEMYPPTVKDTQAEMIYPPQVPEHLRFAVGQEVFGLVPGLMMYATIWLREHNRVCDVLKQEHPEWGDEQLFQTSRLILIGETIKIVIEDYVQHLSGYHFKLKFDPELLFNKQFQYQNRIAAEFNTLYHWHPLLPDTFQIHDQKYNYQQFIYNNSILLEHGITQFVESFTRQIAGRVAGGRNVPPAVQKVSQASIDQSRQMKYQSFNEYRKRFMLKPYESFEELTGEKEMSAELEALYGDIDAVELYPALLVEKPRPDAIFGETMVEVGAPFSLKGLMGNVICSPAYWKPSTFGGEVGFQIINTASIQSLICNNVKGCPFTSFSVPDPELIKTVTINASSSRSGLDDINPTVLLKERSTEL
Briefly: COX Fluorescent Inhibitor Screening Assay, COX-2. It counts as biochemical. To be noted: human recombinant COX-2, Cayman kit 700100. On the procedure:
The synthesized compounds were tested in vitro for their potential to inhibit ovine COX-1 and human recombinant COX-2.
*All compounds were measured with the Cytation 5 plate reader and the "COX Fluorescent Inhibitor […]
chemi cals, USA) " according to the manufacturer's
Error bars indicate standard error mean (SEM) obtained from two measurements at each concentration.
(1 picture or pasted object on this page, not shown here)

Assay [2] relates to B16, mouse solid melanoma. Description: MTT cell viability, B16. It counts as cell-based. To be noted: 48 h. On the procedure: as §1, §2, §3, §4, §5, §6
The test system of assay [3] is B16F10, mouse metastatic melanoma. Briefly: MTT cell viability, B16F10. In kind it is cell-based. To be noted: 48 h. The method, then: as §1, §2, §3, §4, §5, §6
Assay [4] has as its system SW620, human colon carcinoma. Description: MTT cell viability, SW620. In kind it is cell-based. To be noted: 48 h. The method, then:
as §1
(§7) Reagents were obtained from Sigma (St. Louis, MO) unless indicated otherwise. […]
S ystems, Minneapolis, MN USA). […] After being detached b y tr ypsinization, cells were seeded in defined number as follows: 2.5 × 10^3 cells/well in 96-well plates for viability assessment and 2 × 10^4 cells/well in 24-well plates for flow cytometry. […]
Before treatment, non- adherent cells were removed. Compounds 4a- c, 5 and 6 were dissolved in DMSO and stored at −20 °C for a m onth. Working solutions were freshl y prepared in 10% FCS-RPMI-1640. Controls were treated with culture medium containing the equivalent […]
as §4, §5, §6

Assay [5] has as its system B16F10, mouse metastatic melanoma. Briefly: CV (crystal violet) cell viability, B16F10. It counts as cell-based. To be noted: for IC50: 48 h; for Selectivity index B16F10: IC50 macrophages / IC50 cancer. The method, then:
as §1
Reagents were obtained from Sigma (St. Louis, MO) unless indicated otherwise. Annexin V - FITC (AnnV) was acquired from Biotium (Hayward, CA) and Apostat from R&D (R&D S ystems, Minneapolis, MN USA). […] After being detached b y tr ypsinization, cells were seeded in defined number as follows: 2.5 × 10^3 cells/well in 96-well plates for viability assessment and 2 × 10^4 cells/well in 24-well plates for flow cytometry. Peritoneal resident […]
(§8) for Biolo gical Research “Siniša Stanković” b y peritoneal lav age with an ice- cold phosphate buffer solution (PBS). The handling of animals and protocol for obtaining cells is in agreement with the rules of the European Union and approved by the Institutional Animal Care and Use Committee at IBISS (02- 09/1 6). Cells were counted and seeded in 96-well plates and incubat ed overnight. Before treatment, non- adherent cells were removed. Compounds 4a- c, 5 and 6 were dissolved in DMSO and stored at −20 °C for a m onth. Working solutions were freshl y prepared in 10% FCS-RPMI-1640. Controls were treated with culture medium containing the equivalent […]
as §4, §5, §6

In the next assay the test system is 518A2, human melanoma. Description: MTT cell viability, 518A2. It counts as cell-based. Particulars: 48 h. On the procedure:
as §1, §2, §3, §4, §5, §6

Assay [6] deals with SW480, human colon carcinoma. Description: CV (crystal violet) cell viability, SW480. It counts as cell-based. To be noted: for IC50: 48 h; for Selectivity index SW480: IC50 macrophages / IC50 cancer. On the procedure: as §1, §7
S ystems, Minneapolis, MN USA). […] After being detached b y tr ypsinization, cells were seeded in defined number as follows: 2.5 × 10^3 cells/well in 96-well plates for viability assessment and 2 × 10^4 cells/well in 24-well plates for flow cytometry. Peritoneal resident […]
as §8, §4, §5, §6

For orientation: IC50 means the concentration needed to halve the response being measured.

As to “4-[4-(hydroxymethyl)phenyl]-3-(1,2-dicarba-closo-dodecaboranyl)furan-2(5H)-one [Compound 4c]”, the IC50 in assay [1] was 28.4 ± 2.46 µM; at human recombinant COX-2, more than 100 µM; in assay [2], 26.1 ± 2.49 µM; in assay [3], 28 ± 2.62 µM; in assay [4], 35.7 ± 0.85 µM; in assay [5] it was 26.5 ± 2.62 µM. For the same substance, the IC50 was found to be 36.35 ± 0.21 µM in the assay with 518A2, human melanoma and 26.8 ± 2.81 µM in assay [6]. Moreover, the “Selectivity index B16F10” value in assay [5] is 2.5. In assay [6], the “Selectivity index SW480” value is 2.5.

Consider “4-[4-(methylnitrooxy)phenyl]-3-(1,2-dicarba-closo-dodecaboranyl)furan-2(5 H)-one [Compound 5]”, for which the half-maximal inhibitory concentration (IC50) is 31.4 ± 3.27 µM in assay [1]; more than 100 µM at human recombinant COX-2; 10.1 ± 0.4 µM in assay [2]; 7.95 ± 3.06 µM in assay [3]; 10.5 ± 0.14 µM in assay [4]; 7.65 ± 0.26 µM in assay [5]. Further, the IC50 in the assay on 518A2, human melanoma stood at 5.15 ± 0.64 µM; in assay [6], 8.6 ± 0.21 µM. Besides, the “Selectivity index B16F10” value in assay [5] amounted to 4.8. In addition, the “Selectivity index SW480” value in assay [6] turned out to be 4.3.

With “4-[4-(methylsulfonyl)phenyl]-3-(1,2-dicarba-closo-dodecaboranyl)furan-2(5H)-one [Compound 4b]”, the IC50 in assay [1] is 38.1 ± 0.9 µM; at human recombinant COX-2 it was more than 100 µM; in assay [2], 18 ± 1.71 µM; in assay [3] it was 27.3 ± 2.82 µM; in assay [4], 19.2 ± 0.78 µM; in assay [5] it was 26.6 ± 2.62 µM. Besides, the half-inhibitory concentration (IC50) in the assay with 518A2, human melanoma was 13.8 ± 0.21 µM; in assay [6], 35.9 µM. Moreover, the “Selectivity index B16F10” value in assay [5] is 2.5. Moreover, the “Selectivity index SW480” value in assay [6] was 1.8.

Turning to “4-phenyl-3-(1,2-dicarba-closo-dodecaboranyl)furan-2(5 H)-one [Compound 4a]”, the IC50 in assay [1] was 42.6 ± 3.17 µM; at human recombinant COX-2 it was more than 100 µM; in assay [2], 30.8 ± 2.81 µM; in assay [3] it was 24.3 ± 2.01 µM; in assay [4], 24.7 ± 0.42 µM; in assay [5], 25.4 ± 2.41 µM. Moreover, the IC50 in the assay with 518A2, human melanoma came out at 18.9 ± 1.63 µM; in assay [6], 19 ± 1.91 µM. In assay [5], the “Selectivity index B16F10” value turned out to be 1.9. Also, in assay [6], the “Selectivity index SW480” value worked out at 2.6.

As for “R,S-7-(2-oxo-4-(4-sulfamoylphenyl)-2,5-dihydrofuran-3-yl)-7,8-dicarba-nido-dodeca-hydroundecaborate(–1) sodium [Compound 6]”, the IC50 in assay [1] was more than 50 µM; at human recombinant COX-2, 69.6 µM; in assay [2] it was more than 50 µM; in assay [3], more than 50 µM; in assay [4], more than 50 µM; in assay [5], more than 50 µM. Further, the IC50 was 36.9 ± 0.49 µM with 518A2, human melanoma and more than 50 µM in assay [6].
